The text below walks through data of PMC11212260, “Next-generation neuropeptide Y receptor small-molecule agonists inhibit mosquito-biting behavior” (Parasites & Vectors, 2024).

The subject of assay [1] is Aedes aegypti (Orlando strain) females. Nature of the assay: Host-seeking screening assay (miniport olfactometer). Format: in vivo. Particulars: fed 1 μM in saline, tested 48 h post-meal; for Host-seeking relative to saline (test compound % host-seeking/average matched saline % host-seeking): individual replicates; for Attraction (relative to saline): per-compound value of Fig. 3C. As to the method: Groups of 60–150 females were placed in bucket cages with a diameter of 21.6 cm and height of 16.5 cm (VWR) and fasted with access to water for 24 h prior to feeding. Meals were delivered to females via Glytube membrane feeders as described previously. Meals consisted of 1.5 ml sheep blood (HemoStat Laboratories), saline (400 mM NaHCO3 + dih2O), or saline and test compound. Lyophilized compounds were stored at room temperature until use. High-concentration stocks (30 mM in 100% dimethyl sulfoxide [DMSO]) (Sigma-Aldrich) were stored at −20 °C and diluted in saline immediately prior to feeding. Once prepared, meals and glycerol heating elements were warmed in a 42 °C water bath for 15 min to provide warmth to attract mosquitos to feed. ATP (1 mM final concentration) and test compounds (1 μM final concentration) were added prior to placing the meal on top of the mesh on the cage containing female mosquitos. Females were allowed 15–20 min to feed to repletion. Abdominal engorgement was scored by eye and confirmed by weighing females to ensure full feeding (Data S1). […] Females were returned to their original cage with a diH2O wick for 48 h prior to behavioral testing. The lethality of each compound was measured by counting the number of dead females in each cage 24 h post-meal.
Miniport olfactometers were fabricated in-house as described previously. Information regarding design, construction, and use can be found at https://github.com/VosshallLab/Miniport-Construction. Miniport canisters consisted of a 6″ × 3″ × 3″ acrylic tube with a mesh screen to allow for air flow. Groups of 10–20 females were loaded into canisters 24 h post-meal. Females were left in canisters overnight to acclimate with two cotton balls soaked in diH20 to prevent desiccation. Behavior trials began 48 h post-meal. Canisters were randomly assigned to attraction traps 1–4 and given 5 min to acclimate. The stimulus end of the trap was connected to a flowmeter that supplied 5% CO2 at a rate of 30 ml/min. Thirty seconds of CO2 flow was supplied to activate females prior to opening the sliding door. Once opened, the sliding door gave females access to the attraction trap baited with a human-scented nylon stocking previously worn by the same experimenter for 8–10 h to collect body odor and stored in a plastic bag at −20 °C until use. After 5 min, the sliding door was closed and attraction was scored as mosquitoes in the attraction trap/total number of mosquitoes. For each experiment data were normalized to the matched average saline attraction from the same experiment (% attracted/average saline attraction). Any dead mosquitoes were excluded from the analysis. Non-fed females and blood-fed females served as environmental control groups while the saline-fed females served as the vehicle control each day. If non-fed or saline-fed females were less than 50% attracted or if blood-fed females were more than 20% attracted behavioral trials were halted and all data from that experimental day were discarded.

The target in the next assay is Ae. aegypti NPYLR7 (Aedes aegypti, UniProt U5N1H5). Nature of the assay: In vitro calcium (GCaMP6s) FLIPR assay in HEK293T cells transfected with NPYLR7. Format: cell-based. Particulars: for activation at 11.1111 µM / activation at 33.3333 µM / activation at 0.4115 µM / activation at 1.2346 µM / activation at 3.7037 µM / activation at 100 µM: HEK-293T, normalised response; for activation at 11.1111 µM / activation at 33.3333 µM / activation at 0.4115 µM / activation at 1.2346 µM / activation at 3.7037 µM: single replicate; for activation at 100 µM: single replicate of the dose-response curve. As to the method: The in vitro screening assay was adapted from, and carried out at HD Biosciences (HDB, Shanghai) as follows: HEK293T (Thermo Fisher Scientific) cells were grown in Dulbecco’s modified Eagle medium (DMEM) (high glucose, with glutamine), 10% fetal bovine serum, 1% penicillin–streptomycin (Pen/Strep), seeded in a 75 cm^2 flask, and incubated at 37 °C and 5% CO2. Cells were transiently transfected with 1 μg of each plasmid expressing GCaMP6s (Addgene […]) (Chen et al., 2013), mouse Gqα15 (Addgene #40753) (Offermanns and Simon, 1995) and Ae. aegypti NPYLR7 (Addgene #52392) (Duvall et al. 2019) using Lipofectamine 2000 (Invitrogen) in 4 ml of Opti-MEM (Invitrogen). This mixture was added to a plate after 20 min and incubated for 6–8 h. Cells were then trypsinized, resuspended in phenol-free media, and plated in a 384-well plate (Greiner Bio-One) at a density of 20,000 cells per 40 μl, and incubated overnight (37 °C, 5% CO2). Cells were imaged directly in phenol-free media. Plates were loaded into a Molecular Devices fluorescence imaging plate reader (FLIPR) with an excitation wavelength of 470–495 nm and an emitted wavelength of 515–575 nm. Plates were imaged every second for 5 min. After 30 s of baseline fluorescence recording, 10 μl of the test compound in reading buffer [Hank’s Balanced Salt Solution (Gibco) + 20 mM HEPES (Sigma-Aldrich)] was added. Concentrations tested ranged from 0 to 100 μM. Data were collected in raw fluorescence units (RFU).
Each test plate included replicates of 10 μM FMRFa3 (H‐Ala‐Gly‐Gln‐Gly‐Phe‐Met‐Arg‐Phe‐NH2), an Ae. aegypti neuropeptide agonist of NPYLR7 used to calculate the hundred percent effect (HPE). The zero percent effect (ZPE) control was calculated as a response to buffer alone. The Z′ factor was calculated for each plate by Z^′=1-3σHPE+3σZPE/|μHPE-μZPE| . Plates with Z′ < 0.5 were excluded from analysis. Raw fluorescence units (RFU) were converted to percent effect relative to the average of the ZPE and HPE. Percent effect = (sample luminescence − average ZPE)/(average HPE − average ZPE)×100. […] Each replicate was plotted as percent effect versus log[concentration], and replicates with maximal responses between 20 and 250% were used for EC50 calculations. Relative EC50 was calculated using an [Agonist] versus response–variable slope four-parameter model where Y=Bottom+(X^Hillslope)∗(Top-Bottom)/(X^HillSlope+EC50^HillSlope) . For compounds with multiple replicates, the relative EC50 of each replicate was averaged.

The mark [2] stands for this setting: EC50 of the individual assay date/plate (assay date), read-out: EC50.
[3] abbreviates: Figure 1E Summary, second list (n = 48), read-out: Reported Metric (Summary list).
[4] abbreviates: relative EC50, percent effect relative to 10 μM FMRFa3, read-out: EC50.
The mark [5] stands for this setting: sheet Figure 3C, unit inferred, read-out: EC50.
[6] abbreviates: summary EC50 per compound (mean over assay dates), the unit is taken from the neighbouring EC50 (uM) column, read-out: Reported Metric.
Where [7] appears, read: Figure 1E Summary, third list (n = 39), read-out: Reported Metric (Summary list).

Where “and” joins values, the source holds several entries; their conditions need not be identical. Equal values may be shown once. Read-outs that look alike come from different tables or passages of the source.

Ae. aegypti NPYLR7, sequence (U5N1H5 entry or part of it): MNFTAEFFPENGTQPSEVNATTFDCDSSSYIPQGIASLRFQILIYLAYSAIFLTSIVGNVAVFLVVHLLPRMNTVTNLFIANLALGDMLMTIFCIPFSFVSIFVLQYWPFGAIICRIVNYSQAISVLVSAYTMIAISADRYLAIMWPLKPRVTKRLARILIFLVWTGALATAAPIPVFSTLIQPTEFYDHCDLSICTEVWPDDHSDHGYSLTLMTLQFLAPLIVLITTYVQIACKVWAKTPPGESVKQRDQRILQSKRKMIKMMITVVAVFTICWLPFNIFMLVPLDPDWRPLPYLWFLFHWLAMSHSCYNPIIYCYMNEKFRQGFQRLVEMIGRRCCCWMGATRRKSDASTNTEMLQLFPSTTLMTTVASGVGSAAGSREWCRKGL

With `Cc1nc(NC(=N)N)nc2cc(OCc3ccc(OC(F)(F)F)cc3)ccc12` [TDI-014172], in assay [1] (listed as TDI-04172), the “Host-seeking relative to saline (test compound % host-seeking/average matched saline % host-seeking)” value was 1 and 1.1. Also, the “Attraction (relative to saline)” value in assay [1] came to 0.975. The EC50 on Ae. aegypti NPYLR7 (setting [2]), at Ae. aegypti NPYLR7 (setting [3]), on Ae. aegypti NPYLR7 (setting [4]), at Ae. aegypti NPYLR7 (setting [5]) and at Ae. aegypti NPYLR7 (setting [6]) was 19.7 µM in each case. Besides, the activation at 11.1111 µM at Ae. aegypti NPYLR7 was 57%. Besides, the activation at 33.3333 µM on Ae. aegypti NPYLR7 was 89.6%.

Turning to `COc1ccc(COc2ccc3c(C)nc(NC(=N)N)nc3c2)cn1` [TDI-014173], the “Attraction (relative to saline)” value in assay [1] was 0.88. Moreover, the EC50 at Ae. aegypti NPYLR7 (setting [2]), at Ae. aegypti NPYLR7 (setting [7]), at Ae. aegypti NPYLR7 (setting [4]), on Ae. aegypti NPYLR7 (setting [5]) and on Ae. aegypti NPYLR7 (setting [6]) was 1.32 µM each time. In addition, the activation at 0.4115 µM at Ae. aegypti NPYLR7 was determined as 47.7%. In addition, the activation at 1.2346 µM at Ae. aegypti NPYLR7 was determined as 53.6%. Also, the activation at 3.7037 µM at Ae. aegypti NPYLR7 amounted to 83.8%. Besides, the activation at 11.1111 µM at Ae. aegypti NPYLR7 stood at 74.1%. Further, at Ae. aegypti NPYLR7, the activation at 33.3333 µM was 101%.

Consider `Cc1nc(NC(=N)N)nc2cc(OCC3CCOC3)ccc12` (stereo not shown) [TDI-014174], for which the “Host-seeking relative to saline (test compound % host-seeking/average matched saline % host-seeking)” value in assay [1] (listed as TDI-04174) came to 1.41. The “Attraction (relative to saline)” value in assay [1] was 1. Further, the EC50 on Ae. aegypti NPYLR7 (setting [2]), on Ae. aegypti NPYLR7 (setting [3]), at Ae. aegypti NPYLR7 (setting [4]), on Ae. aegypti NPYLR7 (setting [5]) and at Ae. aegypti NPYLR7 (setting [6]) was 5.31 µM in each case. The activation at 3.7037 µM at Ae. aegypti NPYLR7 came out at 42%. Also, the activation at 33.3333 µM on Ae. aegypti NPYLR7 worked out at 92.2%. In addition, at Ae. aegypti NPYLR7, the activation at 100 µM turned out to be 102%.

Turning to `COc1ccc(OCc2ccc3c(C)nc(NC(=N)N)nc3c2)cc1` [TDI-014175], in assay [1], the “Attraction (relative to saline)” value is 0.905. For the same compound, the EC50 is 0.547 µM at Ae. aegypti NPYLR7 (setting [2]); 0.547 µM at Ae. aegypti NPYLR7 (setting [7]); 0.548 µM on Ae. aegypti NPYLR7 (setting [4]); 0.547 µM at Ae. aegypti NPYLR7 (setting [5]); 0.547 µM on Ae. aegypti NPYLR7 (setting [6]). For the same compound, at Ae. aegypti NPYLR7, the activation at 0.4115 µM amounted to 35.1%. Moreover, the activation at 1.2346 µM on Ae. aegypti NPYLR7 was determined as 65.9%. In addition, the activation at 3.7037 µM on Ae. aegypti NPYLR7 stood at 89.7%. Besides, on Ae. aegypti NPYLR7, the activation at 11.1111 µM stood at 98.4%. The activation at 100 µM on Ae. aegypti NPYLR7 amounted to 117%.

For the compound `CCOc1ccc2c(C)nc(NC(=N)N)nc2c1` [TDI-014177], the “Host-seeking relative to saline (test compound % host-seeking/average matched saline % host-seeking)” value in assay [1] (listed as TDI-04177) is 1.17 and 0.9. Moreover, the “Attraction (relative to saline)” value in assay [1] is on record as 0.94. Besides, the EC50 on Ae. aegypti NPYLR7 (setting [2]), at Ae. aegypti NPYLR7 (setting [3]), on Ae. aegypti NPYLR7 (setting [4]), on Ae. aegypti NPYLR7 (setting [5]) and at Ae. aegypti NPYLR7 (setting [6]) was 5.6 µM throughout. In addition, the activation at 100 µM at Ae. aegypti NPYLR7 was found to be 49.6%.
